{"source": "ChEMBL document CHEMBL1133488", "about": "(Bioorg Med Chem Lett, 2000)", "biological_target": "T1, Scytalone dehydratase (Magnaporthe oryzae (strain 70-15 / FGSC 8958) (Rice blast fungus)(Pyricularia oryzae), UniProt P56221)", "T1 sequence (P56221 whole entry)": "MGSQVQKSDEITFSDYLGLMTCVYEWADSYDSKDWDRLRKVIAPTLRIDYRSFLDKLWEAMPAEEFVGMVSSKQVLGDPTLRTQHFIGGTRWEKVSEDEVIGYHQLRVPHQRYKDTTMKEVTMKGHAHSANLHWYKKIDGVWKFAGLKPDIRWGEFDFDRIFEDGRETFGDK", "test": "The compound was evaluated for its binding affinity against wild type scytalone dehydratase (SD)", "design": "species or system Pyricularia grisea"}
{"smiles": "CC(C)NC(=O)c1cc(F)ccc1O", "values": [{"measurement": "Ki", "value": 450, "unit": "nM"}]}
